Data on two molecules can be found in patent publication US5708169A, “5-amidomethyl α,β-saturated and -unsaturated 3-aryl butyrolactone antibacterial agents” (Pharmacia & Upjohn Company, priority 1996, dated 1998).

Values after ≈ are worked out from the molar mass of the structure shown. Where two headings read alike, the source gives them in different places. A value given as a limit tells only on which side of the number the result lay.

One assay relates to S. aureus UC9213. Nature of the assay: Murine Assay, in vivo antimicrobial activity (ED50, survival). More on the design: species or system Staphylococcus aureus (infected female mice). The following applies: Staphylococcus aureus, 144 h, read-out: ED50 (S. aureus UC9213, sq). Here is the method:
Antimicrobial activity was tested in vivo using the Murine Assay procedure. Groups of female mice (six mice of 18-20 grams each) are injected intraperitoneally with bacteria which is thawed just prior to use and suspended in brain heart infusion with 4% brewer's yeast (Staphylococcus aureus) or brain heart infusion (Streptococcus species). Antibiotic treatment at six dose levels per drug is administered one hour and five hours after infection by either oral intubation or subcutaneous routes. Survival is observed daily for six days. ED50 values based on mortality ratios are calculated using probit analysis. The subject compounds are compared against well-known antimicrobials as controls.

In assay [1] the test system is Staphylococcus Aureus 9213. Nature of the assay: MIC by agar dilution (NCCLS), Staphylococcus aureus 9213. The class given is cell-based. Here is the method:
(§1) The saturated and unsaturated 3-aryl butyrolactone compounds of the present invention have useful activity against a variety of organisms. The in vitro activity of compounds of the present invention are assessed by standard testing procedures such as the determination of minimum inhibitory concentration (MIC) by agar dilution as described in "Methods for Dilution Antimicrobial Susceptiblity Tests for Bacteria That Grow Aerobically" (MFT) published January 1993 by the National Committee for Clinical Laboratory Standards. (NCCLS), 771 East Lancaster Avenue, Villanova, Pa. 19084 USA. The activity of selected compounds of the present invention against Staphylococcus aureus and Streptococcus pneumoniae are shown in Table 1.
For orientation: Agar dilution tests growth on a series of plates holding different concentrations.

For assay [2], the system named is Staphylococcus Pneumoniae 9912. In words: MIC by agar dilution (NCCLS), Streptococcus pneumoniae 9912. It counts as cell-based. The following applies: S. pneumoniae 9912. How it is done:
as §1

`COc1ccc(-c2ccc(C3=CC(CNC(C)=O)OC3=O)cc2)ccc1=O` (centres unmarked) [Example 1, Acetamide, N-[[4-[4-[4-(2-methoxy)-5-oxo-1,3,6-cycloheptatrien-1-yl]phenyl]-2,5-dihydro-5-oxo-2-furanyl]methyl]-]: the ED50 – broadly, the dose at which the effect has come halfway, by size or by number of responders – with S. aureus UC9213 (infected ip, mice infected i.p. with S. aureus UC9213, sq treatment 1 h and 5 h after infection, survival six days, probit analysis) turned out to be 9.3 mg/kg. The MIC (usually the least concentration at which growth counts as inhibited) in assay [1] (AUREUS9213, agar dilution, S. aureus 9213, read-out: MIC Staphylococcus Aureus 9213) was 2 µg/mL (≈ 5.47 µM); in assay [2], less than 0.5 µg/mL.
For the molecule `CN[C@H](CC(C)C)C(=O)N[C@H]1C(=O)N[C@@H](CC(N)=O)C(=O)N[C@H]2C(=O)N[C@H]3C(=O)N[C@H](C(=O)N[C@H](C(=O)O)c4cc(O)cc(O)c4-c4cc3ccc4O)[C@H](O)c3ccc(c(Cl)c3)Oc3cc2cc(c3O[C@@H]2O[C@H](CO)[C@@H](O)[C@H](O)[C@H]2O[C@H]2C[C@](C)(N)[C@H](O)[C@H](C)O2)Oc2ccc(cc2Cl)[C@H]1O` [Vancomycin, reference compound], the median effective dose (ED50) in the assay on S. aureus UC9213 (UC9213, infected ip) came to 1.9 mg/kg. For the same molecule, the MIC in assay [1] (AUREUS9213, read-out: Vancomycin MIC) is 1 µg/mL (≈ 0.69 µM).
